According to patent US20260137807A1, “COMPOSITIONS AND METHODS FOR DELIVERING A MACROMOLECULE TO A CELL” (AstraZeneca AB, priority 2022, published 2026):

What was measured:
Format in all cases: cell-based
[1] = tested on: mCherry-GAL9 cells; assay: mCherry-GAL9 assay in live cells for 4 hours, screening; settings: 5 μM (FIG. 6-8)
Procedure: (§1) Cells were subjected to a 10-point concentration dilution (0-15 μM) for 2 hours and then fixed and imaged (FIG. 3 and FIG. 4). Images were analyzed and curves were generated from both mCherry-GAL9 puncta quantitation and cell survival as determined by nuclear morphology (FIG. 5). The GAL9 recruitment response support the functional splice-switching data with SSOs, confirming the mCherry-GAL9 assay as a powerful tool for screening endosomolytic compounds and supporting the hypothesis that AZ2467 (Compound 6) and AZ4800 (Compound 2) promote SSO activity by inducing endosomal rupture. The GAL9 assay was again conducted, this time in live cells for 4 hours with select compounds for screening. Compounds were screened at 5 μM (FIG. 6-8) or 0.3125-10 μM (FIG. 35-38). FIG. 39 and FIG. 47 provide results for select compounds at various doses 0.3125-10 μM.

[2] = tested on: Huh7 mCherry-Gal9 cells; assay: mCherry-GAL9 recruitment assay; settings: for quantitation of Gal9 recruitment over time: Huh7, FIG. 7; for relocalisation of Gal9 from cytosolic to punctate: 10-point dose titration, 2 hours, FIG. 4; for window in concentration between induction of endosomal rupture and cytotoxicity: Huh7, FIG. 5
Source text: (§2) All compounds were subjected to a mCherry-GAL9 recruitment assay. Under normal conditions, mCherry-GAL9 is homogenously dispersed in the cytosol. When an endosomal leakage event is detected, mCherry-GAL9 translocates to the damaged endosome (Du Rietz et al. (2020) Nat. Commun. 11:1809) The resulting localization pattern of discrete puncta can be visualized and quantitated.
(§3) HeLa and Huh7 cell lines stably expressing mCherry-GAL9 were generated as described by (bioRxiv) (Munson, M. et al. (2021) Communications Biology, 4(211): 1-14) and seeded into 384-well CellCarrier Ultra plates (PerkinElmer: 6007558) at 3000 or 3500 cells/well respectively, 16 h before experimental usage.
(§4) Dose-response curves of select compounds were generated using an Echo 655T acoustic dispenser (Labcyte) to dispense the indicated compounds into source plates (Greiner: 781280) containing growth media. At experimental start points, media containing appropriate compounds and doses was transferred to plates using a liquid handling robot (Agilent Bravo).
(§5) At assay endpoints, cells were washed 2× PBS at RT and fixed in 4% PFA (VWR: 9713.1000) for 15 mins/RT. Cells were washed a further 3× PBS before the addition of PBS+1 μg/ml Hoechst 33342 (ThermoFisher Scientific: H21492) for a minimum of 1 h before imaging.
(§6) Plates were imaged using a spinning-disk confocal microscope (Yokogawa: CV7000) with a 20× objective (NA 0.75). Images were processed utilizing Columbus image-analysis software (PerkinElmer: v2.9.0) to identify and quantify cells and mCherry-GAL9 structures. The resulting data were processed and normalized in Spotfire (Tibco: v10.3) and plotted in Prism (Graphpad: v8.0.1). Image panels were assembled using the FigureJ plugin for FIJI. (Mutterer and Zinck (2013) J. Microsc. 252(1):89-91).
as §1

[3] = tested on: HeLa mCherry-Gal9 cells; assay: mCherry-GAL9 recruitment assay; settings: for quantitation of Gal9 recruitment over time / window in concentration between induction of endosomal rupture and cytotoxicity: HeLa; for quantitation of Gal9 recruitment over time: FIG. 8; for relocalisation of Gal9 from cytosolic to punctate: 10-point dose titration, 2 hours, FIG. 3; for window in concentration between induction of endosomal rupture and cytotoxicity: FIG. 5
Source text: as §2, §3, §4, §5, §6, §1

[4] = tested on: HeLa Luc705 cells; assay: Splice switching activity assay (Luc705 luciferase reporter), Example 4A
Source text: HeLa Luc705 and Huh7 Luc705 cells were used to screen and characterize the SMC generated in Example 2 for their ability to increase levels of an SSO-induced splice variant by co-treatment of the cells with the SSO and SMC. The Luc705 reporter construct was used for quantitation of luciferase protein produced as a result of functional SSO delivery. (Kang et al. (1998) Biochemistry, 37(18):6235-6239; Rocha et al. (2016) Four Novel Splice-Switch Reporter Cell Lines: Distinct Impact of Oligonucleotide Chemistry and Delivery Vector on Biological Activity. Nucleic Acid Ther. 26(6):381). Briefly, a plasmid carrying the luciferase coding sequence interrupted by an insertion of intron 2 from β-globin pre-mRNA carrying a cryptic splice site was stably transfected into cells. Unless the aberrant slice site was masked by an antisense oligonucleotide, the pre-mRNA of luciferase was improperly processed.
HeLa Luc705 and Huh7 Luc705 cells were seeded in 96-well plates at 10,000 cells per well in growth media containing 1 μM Luc705-SSO and incubated to allow adherence and oligo internalization. After 24 hours, 10 μl of SMC diluted in Growth Media (DMEM+10% FBS) was added into each well. After 2 hours, media was removed from the wells and replaced with fresh growth media for 4 hours to allow for translation of the variant proteins. The media was then removed, and cells were lysed with 0.1% Triton-PBS.
To detect luciferase activity, 30 μL of cell lysate was transferred to white-walled 96-well plates. Luciferase intensity in each well was measured using a GloMax® 96 Microplate Luminometer machine (Promega) following auto-injection of 25 μL Luciferin substrate (Firefly Luciferase Assay System: Promega) per well. Photon measurements were acquired for 10 seconds, starting 2 seconds after injection.
To determine whether AZ4800 (Compound 2, FIG. 1B) and SSO must be present in the cell media simultaneously for Compound 2 to produce its synergistic effects, the treatment plan was modified from the UNC2383 treatment plan detailed by Wang et al. (2017) ACS Chem. Biol. 12(8):1999-2007 to include a 24 hour pre-treatment with SSO, followed by the addition of Compound 2 for two hours, followed by the removal of SSO and Compound 2, and finally a 4-hour protein translation period (FIG. 10).

[5] = tested on: HeLa_Luc705 cells; assay: Splice switching activity assay, 24 hr SMC treatment, Examples 4B/4D
Procedure: (§7) HeLa_Luc705 cells were seeded in 96-well plates at 10,000 cells per well in growth media with 2 μM Luc705-SSO or 1 μM Luc705-SSO. The various SMCs were diluted directly into prepared growth media. After 24 hr to allow adherence and SSO internalization, 10 μl of diluted SMC was added into each well at indicated concentrations. For a positive control, SSOs were complexed with Lipofectamine 2000 for 30 min at RT and cells treated with a final concentration of 200 nM. ON concentrations above 200 nM would require LF2000 to be used in excess of the cells' toxicity threshold. After 24 hr treatment, cells were lysed with 0.1% TritonX-100 (Sigma Aldrich, cat no. X100) in 1× PBS (Gibco, cat no. 10010023).
(§8) For the detection of luciferase activity, 30 μL of cell lysate was transferred to white-walled plates. The luciferase intensity in each well was immediately measured via luminometer following auto-injection of 25 μL Luciferin substrate as per the Promega Firefly Luciferase Assay System. The timing parameters of photon measurements were optimized for this procedure.
(§9) The various SMCs were diluted directly into prepared growth media. After 24 hr to allow adherence and SSO internalization, 10 μl of diluted SMC was added into each well at indicated concentrations. For a positive control, SSOs were complexed with Lipofectamine 2000 for 30 min at RT and cells treated with a final concentration of 200 nM. ON concentrations above 200 nM would require LF2000 to be used in excess of the cells' toxicity threshold. After 24 hr treatment, cells were lysed with 0.1% TritonX-100 (Sigma Aldrich, cat no. X100) in 1× PBS (Gibco, cat no. 10010023).

[6] = tested on: N2A_Luc705 cells; assay: Splice switching activity assay, 24 hr SMC treatment, Examples 4C/4D; settings: compounds at 5 μM, 1 μM Luc 705 SSO, FIG. 25B
Procedure: as §7, with “U2OS_Luc705 and N2A_Luc705” for “HeLa_Luc705”, “with” for “with 2 μM Luc705-SSO or”
as §8, §9

[7] = tested on: U2OS_Luc705 cells; assay: as above; settings: compounds at 5 μM, 1 μM Luc 705 SSO, FIG. 25A
Procedure: as §7, with “U2OS_Luc705 and N2A_Luc705” for “HeLa_Luc705”, “with” for “with 2 μM Luc705-SSO or”
as §8, §9

COc1ccc2c(-c3nc(Nc4cn(C5CCNCC5)nc4OC)ncc3Cl)c[nH]c2c1 [Compound 5]
GAL9 recruitment, reason for selection for further characterization [1]: efficacy at shorter-term timepoints
quantitation of Gal9 recruitment over time [2]: time-dependent endosomal rupture
quantitation of Gal9 recruitment over time [3]: time-dependent endosomal rupture

CCOc1nn(C2CCNCC2)cc1Nc1ncc(Cl)c(-c2c[nH]c3ccccc23)n1 [Compound 6]
GAL9 recruitment, reason for selection for further characterization [1]: efficacy at shorter-term timepoints
relocalisation of Gal9 from cytosolic to punctate [2]: dose-dependent manner
window in concentration between induction of endosomal rupture and cytotoxicity [2]: narrow window
quantitation of Gal9 recruitment over time [2]: time-dependent endosomal rupture
relocalisation of Gal9 from cytosolic to punctate [3]: dose-dependent manner
window in concentration between induction of endosomal rupture and cytotoxicity [3]: narrow window
quantitation of Gal9 recruitment over time [3]: time-dependent endosomal rupture
increase in functional SSO activity ([4]; 5 μM compound, 1 μM SSO or 100 nM SSO, FIG. 2B): increase in activity
increase in SSO activity ([4]; up to 6 hours at 10 μM, FIG. 11B): 200 fold

CCOc1nn(C2CCNCC2)cc1Nc1ncc(C(F)(F)F)c(-c2c[nH]c3ccccc23)n1 [Compound 7]
increase in SSO activity ([5]; 2 μM Luc 705 SSO, FIG. 26): induced an increase in SSO activity
increase in SSO activity ([5]; 2 μM SSO, FIG. 23A): increase in SSO activity

COc1nn(C2CCN(C)CC2)cc1Nc1ncc(F)c(-n2ccc3c(C#N)cccc32)n1 [Compound 8]
increase in SSO activity ([5]; 2 μM Luc 705 SSO, FIG. 24): increase in SSO activity
increase in SSO activity ([5]; 2 μM Luc 705 SSO, FIG. 26): induced an increase in SSO activity
dose from which GAL9+ remodelling is induced ([2]; FIG. 40): ≥ 2.5 µM
GAL9 response, rank among exemplified compounds ([2]; doses 1.25-5 μM, 1, 2, 16 hours, FIG. 33): second most potent
GAL9 response, rank among exemplified compounds ([3]; doses 1.25-5 μM, 1, 2, 16 hours, FIG. 34): second most potent
increase in SSO activity relative to oligo only [6]: induced an increase in SSO activity relative to oligo only
increase in SSO activity relative to oligo only [7]: induced an increase in SSO activity relative to oligo only

COc1nn(C2CCNCC2)cc1Nc1ncc(C#N)c(-n2ccc3c(C(F)(F)F)cccc32)n1 [Compound 20]
increase in SSO activity relative to oligo only [7]: induced an increase in SSO activity relative to oligo only

CCOc1nn(C2CCNCC2)cc1Nc1ncc(F)c(-n2ccc3c(C#N)cccc32)n1 [Compound 21]
increase in SSO activity ([5]; 2 μM Luc 705 SSO, FIG. 24): increase in SSO activity
increase in SSO activity ([5]; 2 μM Luc 705 SSO, FIG. 26): induced an increase in SSO activity
increase in SSO activity relative to oligo only [6]: induced an increase in SSO activity relative to oligo only
increase in SSO activity relative to oligo only [7]: induced an increase in SSO activity relative to oligo only

COc1nn(C2CCNCC2)cc1Nc1ncc(F)c(-n2ccc3ccc(C#N)cc32)n1 [Compound 22]
increase in SSO activity relative to oligo only [6]: induced an increase in SSO activity relative to oligo only
increase in SSO activity relative to oligo only [7]: induced an increase in SSO activity relative to oligo only

COc1nn(C2CCNCC2)cc1Nc1ncc(F)c(-c2c[nH]c3cccc(C)c23)n1 [Compound 25]
increase in SSO activity relative to oligo only [7]: induced an increase in SSO activity relative to oligo only

O=C(Nc1nc2ccccc2n1CCN1CCCC1)c1cc2cc(Cl)ccc2o1 [UNC2383, reference compound]
relocalisation of Gal9 from cytosolic to punctate [2]: dose-dependent manner
window in concentration between induction of endosomal rupture and cytotoxicity [2]: narrow window
quantitation of Gal9 recruitment over time [2]: time-dependent endosomal rupture
relocalisation of Gal9 from cytosolic to punctate [3]: dose-dependent manner
window in concentration between induction of endosomal rupture and cytotoxicity [3]: narrow window
